Patent US20230219911A1, “BENZOTHIAZOLE DERIVATIVES AND USES THEREOF” (SHENYANG PHARMACEUTICAL UNIVERSITY, priority 2020, published 2023)

Biological target: T1, sEH enzyme (human recombinant) (Homo sapiens, UniProt P34913)
T1 construct: purchased Cayman Chemical
T1 sequence (P34913 1-555): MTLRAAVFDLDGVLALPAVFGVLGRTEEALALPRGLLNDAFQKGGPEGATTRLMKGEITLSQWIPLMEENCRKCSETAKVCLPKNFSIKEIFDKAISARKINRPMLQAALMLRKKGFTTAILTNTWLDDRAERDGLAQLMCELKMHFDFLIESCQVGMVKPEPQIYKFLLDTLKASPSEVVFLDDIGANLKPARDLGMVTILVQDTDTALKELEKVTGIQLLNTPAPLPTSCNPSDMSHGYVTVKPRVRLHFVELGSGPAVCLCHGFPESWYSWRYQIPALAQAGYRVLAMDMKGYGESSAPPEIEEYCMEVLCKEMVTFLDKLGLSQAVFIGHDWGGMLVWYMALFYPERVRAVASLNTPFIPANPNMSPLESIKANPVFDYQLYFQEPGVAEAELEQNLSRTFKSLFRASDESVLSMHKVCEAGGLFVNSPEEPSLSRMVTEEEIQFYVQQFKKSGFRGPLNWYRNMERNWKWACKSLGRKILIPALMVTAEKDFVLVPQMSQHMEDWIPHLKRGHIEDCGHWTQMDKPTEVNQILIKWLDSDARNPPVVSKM
Assay: in vitro sEH enzyme activity by fluorescence analysis, single concentration inhibition
Format: biochemical
Details: compound 0.1 μM; human recombinant sEH; PHOME substrate; 37° C. 15 min; read-out: sEH % inhibition, @ 0.1 μM
Method: The benzothiazole skeleton compounds (concentration: 0.1 μM) according to the above formula I of the present invention were tested for the in vitro sEH enzyme activity by fluorescence analysis.
12 μL of sEH enzyme (human recombinant, 0.5 mg/mL, Cayman Chemical) was diluted with 588 μL of buffer (25 mM bis-Tris, pH 7.0). The fluorescent substrate was PHOME (cyano-(6-methoxy-naphthalen-2-yl)-methyl (3-phenyl-oxiranyl)-acetate) in DMSO (10 μM, Cayman Chemical). The compound to be tested was dissolved in 100% DMSO at a concentration of 4 μM. 185 μL of buffer (25 mM bis-Tris, pH 7.0), 5 μL of compound solution, and 5 μL of diluted sEH enzyme were added to the wells of a 96-well plate, and finally 5 μL of substrate solution was added to initiate the reaction. After incubating at 37° C. for 15 min, the fluorescence signal was measured with a microplate reader (excitation wavelength 330 nm, emission wavelength 465 nm).
Inhibition (%)=(F0−F1)/(F0)×100.

Row | Compound | inhibition at 0.1 µM [%]
1 | NC(=O)Nc1ccc2nc(N)sc2c1 [Example 2, 1-(2-aminobenzo[d]thiazol-6-yl)urea] | 11.7
2 | Nc1nc2ccc(NC(=O)Nc3ccccc3)cc2s1 [Example 3, 1-(2-aminobenzo[d]thiazol-6-yl)-3-phenylurea] | 32.9
3 | Nc1nc2ccc(NC(=O)NCc3ccc(Cl)cc3)cc2s1 [Example 5, 1-(2-aminobenzo[d]thiazol-6-yl)-3-(4-chlorobenzyl)urea] | 47
4 | Nc1nc2ccc(NC(=O)NC3CCCCC3)cc2s1 [Example 6, 1-(2-aminobenzo[d]thiazol-6-yl)-3-cyclohexylurea] | 2.15
5 | Nc1nc2ccc(N(CCN3CCOCC3)C(=O)Nc3ccc([N+](=O)[O-])cc3)cc2s1 [Example 8, 1-(2-aminobenzo[d]thiazol-6-yl)-1-[2-(4-morpholinyl)ethyl]-3-(4-nitrophenyl)urea] | 19.2
6 | CC(=O)c1ccc(NC(=O)N(CCN2CCOCC2)c2ccc3nc(N)sc3c2)cc1 [Example 9, 1-(2-aminobenzo[d]thiazol-6-yl)-1-[2-(4-morpholinyl)ethyl]-3-(4-acetylphenyl)urea] | 28.2
7 | CC(=O)Nc1ccc(NC(=O)N(CCN2CCOCC2)c2ccc3nc(N)sc3c2)cc1 [Example 10, 1-(2-aminobenzo[d]thiazol-6-yl)-1-[2-(4-morpholinyl)ethyl]-3-(4-acetamidophenyl)urea] | 2.16
8 | Nc1nc2ccc(N(CCN3CCOCC3)C(=O)Nc3ccccn3)cc2s1 [Example 14, 1-(2-aminobenzo[d]thiazol-6-yl)-1-[2-(4-morpholinyl)ethyl]-3-(pyridin-2-yl)urea] | 16.2
9 | Nc1nc2ccc(N(CCN3CCOCC3)C(=O)Nc3cccc4ccccc34)cc2s1 [Example 15, 1-(2-aminobenzo[d]thiazol-6-yl)-1-[2-(4-morpholinyl)ethyl]-3-(naphthalen-1-yl)urea] | 39
10 | Nc1nc2ccc(N(CCN3CCOCC3)C(=O)Nc3ccc(OC(F)(F)F)cc3)cc2s1 [Example 17, 1-(2-aminobenzo[d]thiazol-6-yl)-1-[2-(4-morpholinyl)ethyl]-3-(4-trifluoromethoxyphenyl)urea] | 70.3
11 | CC(C)Oc1ccc(NC(=O)N(CCN2CCOCC2)c2ccc3nc(N)sc3c2)cc1 [Example 19, 1-(2-aminobenzo[d]thiazol-6-yl)-1-[2-(4-morpholinyl)ethyl]-3-(4-isopropoxyphenyl)urea] | 76.6
12 | CC(C)c1ccc(NC(=O)N(CCN2CCOCC2)c2ccc3nc(N)sc3c2)cc1 [Example 20, 1-(2-aminobenzo[d]thiazol-6-yl)-1-[2-(4-morpholinyl)ethyl]-3-(4-isopropylphenyl)urea] | 75.2
13 | CCN(CC)CCN(C(=O)Nc1ccc(Cl)cc1)c1ccc2nc(N)sc2c1 [Example 21, 1-(2-aminobenzo[d]thiazol-6-yl)-1-[2-(N,N-diethylamino)ethyl]-3-(4-chlorophenyl)urea] | 86.2
14 | CC1CCN(CCN(C(=O)Nc2ccc(Cl)cc2)c2ccc3nc(N)sc3c2)CC1 [Example 22, 1-(2-aminobenzo[d]thiazol-6-yl)-1-[2-(4-methylpiperidin-1-yl)ethyl]-3-(4-chlorophenyl)urea] | 67.5
15 | CN1CCN(CCN(C(=O)Nc2ccc(C(F)(F)F)cc2)c2ccc3nc(N)sc3c2)CC1 [Example 23, 1-(2-aminobenzo[d]thiazol-6-yl)-1-[2-(4-methylpiperazin-1-yl)ethyl]-3-(4-trifluoromethylphenyl)urea] | 43.7
16 | Nc1nc2ccc(N(CCN3CCCC3)C(=O)Nc3ccc(Cl)cc3)cc2s1 [Example 24, 1-(2-aminobenzo[d]thiazol-6-yl)-1-[2-(pyrrolidin-1-yl)ethyl]-3-(4-chlorophenyl)urea] | 28.4
17 | Nc1nc2ccc(N(CCCN3CCOCC3)C(=O)Nc3ccc(Cl)cc3)cc2s1 [Example 26, 1-(2-aminobenzo[d]thiazol-6-yl)-1-[3-(4-morpholinyl)propyl]-3-(4-chlorophenyl)urea] | 36.5

Row | Compound | inhibition at 0.1 µM [%]
18 | CCOC(=O)Nc1nc2ccc(N(CCN3CCOCC3)C(=O)Nc3ccc(Cl)cc3)cc2s1 [Example 28, 1-[2-(2-ethoxyformamido)benzo[d]thiazol-6-yl]-1-[2-(4-morpholinyl)ethyl]-3-(4-chlorophenyl)urea] | 90.5
19 | CC(C)(C)OC(=O)Nc1nc2ccc(N(CCN3CCOCC3)C(=O)Cc3ccc(Cl)cc3)cc2s1 [Example 31, tert-butyl (6-{2-(4-chlorophenyl)-N-[2-(4-morpholinyl)ethyl]acetamido}benzo[d]thiazol-2-yl)carbamate] | 70.9
20 | O=C(Nc1nc2ccc(N(CCN3CCOCC3)C(=O)Nc3ccc(Cl)cc3)cc2s1)c1ccccc1 [Example 32, 1-(2-phenylformamidobenzo[d]thiazol-6-yl)-1-[2-(4-morpholinyl)ethyl]-3-(4-chlorophenyl)urea] | 77.6
21 | O=C(CCc1ccccc1)Nc1nc2ccc(N(CCN3CCOCC3)C(=O)Nc3ccc(Cl)cc3)cc2s1 [Example 33] | 15.8
22 | O=C(Cc1ccccc1)Nc1nc2ccc(N(CCN3CCOCC3)C(=O)Nc3ccc(C(F)(F)F)cc3)cc2s1 [Example 34, 1-(2-phenylacetamidobenzo[d]thiazol-6-yl)-1-[2-(4-morpholinyl)ethyl]-3-(4-trifluoromethylphenyl)urea] | 32.5
23 | Cc1ccc(NC(=O)N(CCN2CCOCC2)c2ccc3nc(N)oc3c2)cc1 [Example 35, 1-(2-aminobenzo[d]oxazol-6-yl)-1-[2-(4-morpholinyl)ethyl]-3-(4-methylphenyl)urea] | 10.3
24 | CC(=O)Nc1nc2ccc(N(CCN3CCOCC3)C(=O)Nc3ccc(C)cc3)cc2o1 [Example 36, 1-(2-acetamidobenzo[d]oxazol-6-yl)-1-[2-(4-morpholinyl)ethyl]-3-(4-methylphenyl)urea] | 45.6
25 | Cc1ccc(NC(=O)N(CCN2CCOCC2)c2ccc3nc(NC(=O)Cc4ccccc4)oc3c2)cc1 [Example 37, 1-(2-phenylacetamidobenzo[d]oxazol-6-yl)-1-[2-(4-morpholinyl)ethyl]-3-(4-methylphenyl)urea] | 66.8
26 | Nc1nc2ccc(N(CCN3CCOCC3)C(=O)Nc3ccc(F)cc3)nc2s1 [Example 38, 1-(2-aminothiazo[5,4-b]pyridin-5-yl)-3-(4-fluorophenyl)-1-[2-(4-morpholinyl)ethyl]urea] | 57.2
27 | CCNc1nc2ccc(N(CCN3CCOCC3)C(=O)Nc3ccc(F)cc3)nc2s1 [Example 39, 1-[2-(ethylamino)thiazo[5,4-b]pyridin-5-yl]-1-[2-(4-morpholinyl)ethyl]-3-(4-fluorophenyl)urea] | 41.5
28 | Nc1nc2cnc(N(CCN3CCOCC3)C(=O)Nc3ccc(OC(F)(F)F)cc3)cc2s1 [Example 41, 1-(2-aminothiazo[4,5-c]pyridin-6-yl)-1-[2-(4-morpholinyl)ethyl]-3-(4-trifluoromethoxyphenyl)urea] | 34.7
29 | O=C(Nc1nc2cnc(N(CCN3CCOCC3)C(=O)Nc3ccc(OC(F)(F)F)cc3)cc2s1)C1CC1 [Example 42, 1-(2-cyclopropylformamidothiazo[4,5-c]pyridin-6-yl)-1-[2-(4-morpholinyl)ethyl]-3-(4-trifluoromethoxyphenyl)urea] | 52.1
30 | CCOC(=O)CNc1nc2cnc(N(CCN3CCOCC3)C(=O)Nc3ccc(OC(F)(F)F)cc3)cc2s1 [Example 43] | 78.2
31 | Nc1nc2cnc(N(CCN3CCOCC3)C(=O)Nc3cccnc3)nc2s1 [Example 44, 1-(2-aminothiazo[5,4-d]pyrimidin-5-yl)-1-[2-(4-morpholinyl)ethyl]-3-(pyridin-3-yl)urea] | 55.9
32 | CC(=O)Nc1nc2cnc(N(CCN3CCOCC3)C(=O)Nc3cccnc3)nc2s1 [Example 45, 1-(2-acetamidothiazo[5,4-d]pyrimidin-5-yl)-1-[2-(4-morpholinyl)ethyl]-3-(pyridin-3-yl)urea] | 45.2
33 | O=C(CCc1ccccc1)Nc1nc2cnc(N(CCN3CCOCC3)C(=O)Nc3cccnc3)nc2s1 [Example 46] | 67.9
34 | O=C(NCc1ccccc1)Nc1nc2ncc(N(CCN3CCOCC3)C(=O)Nc3ccc(Br)c(F)c3)cc2s1 [Example 47, 1-[2-(3-benzylureido)thiazo[4,5-b]pyridin-6-yl]-1-[2-(4-morpholinyl)ethyl]-3-(4-bromo-3-fluorophenyl)urea] | 32.5
